Where “and” joins values, the source holds several entries; their conditions need not be identical. Identical values can stand only once. Inconclusive results and toxic doses are left out. The calls were made as follows: active = survival T/C of 150% or more; inactive = T/C below 125% in these data.
System: P388 leukemia ip, CD2F1 mice, survival T/C
Assay: NCI In Vivo Anticancer Drug Screen. Data for tumor model P388 Leukemia (intraperitoneal) in CD2F1 (CDF1) mice
Details: endpoint: median survival time, higher = longer survival
In short: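 Mice carrying the transplanted tumor received test compound or vehicle. Survival was recorded in each group, and the value is the treated-group measurement divided by that of the vehicle-treated control group.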

[1] = dose: 50.0 mg/kg/injection, schedule: Q01DX005 (ip), vehicle: Klucel (hydroxypropylcellulose) (HPC)
[2] = dose: 100.0 mg/kg/injection, schedule: Q01DX005 (ip), vehicle: Klucel (hydroxypropylcellulose) (HPC)
[3] = dose: 200.0 mg/kg/injection, schedule: Q01DX005 (ip), vehicle: Klucel (hydroxypropylcellulose) (HPC)
[4] = dose: 50.0 mg/kg/injection, schedule: Q01DX009 (ip), vehicle: Klucel (hydroxypropylcellulose) (HPC)
[5] = dose: 100.0 mg/kg/injection, schedule: Q01DX009 (ip), vehicle: Klucel (hydroxypropylcellulose) (HPC)
[6] = dose: 200.0 mg/kg/injection, schedule: Q01DX009 (ip), vehicle: Klucel (hydroxypropylcellulose) (HPC)
[7] = dose: 50.0 mg/kg/injection, schedule: Q01DX005 (ip), vehicle: saline with Tween-80
[8] = dose: 100.0 mg/kg/injection, schedule: Q01DX005 (ip), vehicle: saline with Tween-80
[9] = dose: 200.0 mg/kg/injection, schedule: Q01DX005 (ip), vehicle: saline with Tween-80
[10] = dose: 50.0 mg/kg/injection, schedule: Q01DX009 (ip), vehicle: saline
[11] = dose: 100.0 mg/kg/injection, schedule: Q01DX009 (ip), vehicle: saline
[12] = dose: 200.0 mg/kg/injection, schedule: Q01DX009 (ip), vehicle: saline
[13] = dose: 60.0 mg/kg/injection, schedule: Q01DX005 (ip), vehicle: saline with Tween-80
[14] = dose: 120.0 mg/kg/injection, schedule: Q01DX005 (ip), vehicle: saline with Tween-80
[15] = dose: 100.0 mg/kg/injection, schedule: Q01DX001 (ip), vehicle: saline with Tween-80
[16] = dose: 200.0 mg/kg/injection, schedule: Q01DX001 (ip), vehicle: saline with Tween-80

Measured: T/C

Cc1c(-c2ccccc2)n(O)c(-c2ccccc2Cl)[n+]1[O-]
inactive: dose: 50.0 mg/kg/injection, schedule: Q01DX009 (ip), vehicle: saline with Tween-80 94 % of control | dose: 100.0 mg/kg/injection, schedule: Q01DX009 (ip), vehicle: saline with Tween-80 98 % of control | dose: 200.0 mg/kg/injection, schedule: Q01DX009 (ip), vehicle: saline with Tween-80 100 % of control

CC(=O)C1CC(=O)c2c(O)ccc(O)c2C1 (configuration not stated)
inactive: dose: 25.0 mg/kg/injection, schedule: Q01DX009 (ip), vehicle: water 94 % of control | dose: 50.0 mg/kg/injection, schedule: Q01DX009 (ip), vehicle: water 96 % of control | dose: 100.0 mg/kg/injection, schedule: Q01DX009 (ip), vehicle: water 89 % of control | dose: 200.0 mg/kg/injection, schedule: Q01DX009 (ip), vehicle: water 111 % of control | dose: 400.0 mg/kg/injection, schedule: Q01DX009 (ip), vehicle: water 109 % of control

CCC1C(=O)COC1=O (configuration not stated)
inactive: [1] 99 % of control | [2] 99 % of control | [3] 99 % of control

CN(C)[Si](c1ccccc1)(c1ccccc1)N(C)C
inactive: [4] 102 % of control | [5] 102 % of control | [6] 106 % of control

ON1c2ccccc2-c2ccccc2C1(c1ccccc1)c1ccccc1
inactive: [7] 94 % of control | [8] 99 % of control | [9] 90 % of control

CCCCCCN(C)C12CN3CN(CN(C3)C1)C2
inactive: [10] 102 % of control | [11] 102 % of control | [12] 102 % of control

NC(CCCCNC=O)C(=O)O (configuration not stated)
inactive: dose: 50.0 mg/kg/injection, schedule: Q01DX005 (ip), vehicle: saline 104 % of control | dose: 100.0 mg/kg/injection, schedule: Q01DX005 (ip), vehicle: saline 98 % of control | dose: 200.0 mg/kg/injection, schedule: Q01DX005 (ip), vehicle: saline 96 % of control

CCCCCC(Cl)(CC)CCCCC
inactive: [11] 110 % of control | [12] 108 % of control | dose: 400.0 mg/kg/injection, schedule: Q01DX009 (ip), vehicle: saline 109 % of control

NC(=O)C12CCCCC1CCC(=O)C2 (configuration not stated)
inactive: dose: 2.5 mg/kg/injection, schedule: Q01DX009 (ip), vehicle: saline 100 % of control | dose: 5.0 mg/kg/injection, schedule: Q01DX009 (ip), vehicle: saline 100 % of control | dose: 10.0 mg/kg/injection, schedule: Q01DX009 (ip), vehicle: saline 100 % of control

O=C(Nc1ccc(Cl)cc1)N1c2ccccc2SC1c1ccco1 (configuration not stated)
inactive: [7] 89 % of control | [8] 88 % of control | [9] 87 % of control

CCOC(=O)C1=C(O)C(=O)NC1c1ccccc1 (configuration not stated)
inactive: dose: 15.0 mg/kg/injection, schedule: Q01DX005 (ip), vehicle: Klucel (hydroxypropylcellulose) (HPC) 111 % of control | dose: 30.0 mg/kg/injection, schedule: Q01DX005 (ip), vehicle: Klucel (hydroxypropylcellulose) (HPC) 102 % of control | dose: 60.0 mg/kg/injection, schedule: Q01DX005 (ip), vehicle: Klucel (hydroxypropylcellulose) (HPC) 102 % of control and 107 % of control

O=[N+]([O-])c1ccc(C2OCC3CSCN32)cc1 (configuration not stated)
inactive: dose: 100.0 mg/kg/injection, schedule: Q04DX002 (ip), vehicle: saline with Tween-80 107 % of control | dose: 200.0 mg/kg/injection, schedule: Q04DX002 (ip), vehicle: saline with Tween-80 97 % of control | dose: 400.0 mg/kg/injection, schedule: Q04DX002 (ip), vehicle: saline with Tween-80 97 % of control

CCOc1ccc2nc(N=NC(C(C)=O)C(C)=O)sc2c1
inactive: [10] 90 % of control | [11] 92 % of control | [12] 92 % of control

COc1ccc(NC(=S)N(C)C)cc1
inactive: dose: 100.0 mg/kg/injection, schedule: Q04DX003 (ip), vehicle: saline with Tween-80 95 % of control | dose: 200.0 mg/kg/injection, schedule: Q04DX003 (ip), vehicle: saline with Tween-80 100 % of control | dose: 400.0 mg/kg/injection, schedule: Q04DX003 (ip), vehicle: saline with Tween-80 95 % of control

CSc1nc2ccc(NC(C)=O)cc2s1
inactive: dose: 12.5 mg/kg/injection, schedule: Q01DX009 (ip), vehicle: Klucel (hydroxypropylcellulose) (HPC) 111 % of control | dose: 25.0 mg/kg/injection, schedule: Q01DX009 (ip), vehicle: Klucel (hydroxypropylcellulose) (HPC) 107 % of control | [4] 102 % of control and 87 % of control | [6] 90 % of control

CNC(=O)c1ccccc1CNC(=S)Nc1cccc(C)c1
inactive: [1] 98 % of control | [2] 98 % of control | [3] 95 % of control

O=C1OC[C@@H]2[C@H]1[C@H]1O[C@@H]2c2cc3ccccc3cc21
inactive: [13] 104 % of control | [14] 101 % of control | dose: 240.0 mg/kg/injection, schedule: Q01DX005 (ip), vehicle: saline with Tween-80 101 % of control

CNCCOC(=O)/C=C1\CC[C@H]2[C@@H]([C@@H](O)C(=O)[C@@H]3[C@]2(C)CC[C@H](O)[C@]3(C)C(=O)OC)[C@H]1C
inactive: dose: 3.0 mg/kg/injection, schedule: Q01DX009 (ip), vehicle: saline 100 % of control | dose: 6.0 mg/kg/injection, schedule: Q01DX009 (ip), vehicle: saline 97 % of control | dose: 12.0 mg/kg/injection, schedule: Q01DX009 (ip), vehicle: saline 109 % of control | dose: 12.5 mg/kg/injection, schedule: Q01DX009 (ip), vehicle: saline 114 % of control

CN1CCOC(c2ccccc2)c2ccsc2CC1 (configuration not stated)
inactive: [13] 98 % of control | [14] 93 % of control

S=C(Cl)Sc1ccc(-c2ccc(SC(=S)Cl)cc2)cc1
inactive: [1] 88 % of control | [2] 88 % of control | [3] 87 % of control

C/C(=N\N=C(/[Se])N1CCCCC1C)c1ccccn1 (configuration not stated)
inactive: dose: 12.5 mg/kg/injection, schedule: Q04DX003 (ip), vehicle: Klucel (hydroxypropylcellulose) (HPC) 101 % of control | dose: 25.0 mg/kg/injection, schedule: Q04DX003 (ip), vehicle: Klucel (hydroxypropylcellulose) (HPC) 114 % of control

CS(=O)(=O)C(CCC(=O)c1cccs1)C(=O)c1ccccc1 (configuration not stated)
inactive: [1] 89 % of control | [2] 91 % of control | [3] 89 % of control

c1ccc(N2CCCCCN2c2ccccc2)cc1
inactive: dose: 25.0 mg/kg/injection, schedule: Q01DX001 (ip), vehicle: saline with Tween-80 100 % of control | dose: 50.0 mg/kg/injection, schedule: Q01DX001 (ip), vehicle: saline with Tween-80 100 % of control | [15] 100 % of control | [16] 92 % of control

Nc1ccc(N)c2c1C(=O)c1ccccc1C2=O
inactive: [7] 110 % of control | [4] 105 % of control | [8] 105 % of control | [5] 103 % of control | [9] 105 % of control

CN(C)C1=CC(=O)c2ccccc2C12CO2 (configuration not stated)
inactive: [15] 106 % of control | [16] 100 % of control

C=C(C)C1=CC(=O)C2CCCC(C)C2(C)C1OC(C)=O (configuration not stated)
inactive: dose: 75.0 mg/kg/injection, schedule: Q01DX001 (ip), vehicle: Klucel (hydroxypropylcellulose) (HPC) 100 % of control | dose: 150.0 mg/kg/injection, schedule: Q01DX001 (ip), vehicle: Klucel (hydroxypropylcellulose) (HPC) 106 % of control | dose: 300.0 mg/kg/injection, schedule: Q01DX001 (ip), vehicle: Klucel (hydroxypropylcellulose) (HPC) 107 % of control

— PubChem BioAssay AID330 (DTP/NCI, 2004)
